Test results taken from EPA's ToxValDB 9.5.
Each block holds one compound with its values, some of them ahead of it.

Assays:
Rattus norvegicus = details: for LD50: acute
Canidae = details: Dog Other
[1] = subchronic, duration: 90 days, oral, M/F, Sprague-Dawley, histopathology: neoplastic
[2] = subchronic, duration: 90 days, oral, diet, M/F, Sprague-Dawley, histopathology: nonneoplastic
[3] = subchronic, duration: 90 days, oral, gavage, M, hematological

SMILES: CC(C)[C@@H]1CC[C@@H](C)C[C@@H]1NC(=O)C1CC1
NOAEL (Rattus norvegicus; subchronic, duration: 90 days, oral, diet, M/F, Sprague-Dawley, body weight): 147 mg/kg-day

SMILES: Cc1occc1SC(C)CC=O (stereo unspecified) [3-[(2-Methylfuran-3-yl)sulfanyl]butanal]
NOAEL (Rattus norvegicus; subchronic, duration: 90 days, oral, diet, M/F, no effects): 3.76 mg/kg-day

SMILES: Cc1cc2nc3c(=O)[nH]c(=O)nc-3n(C[C@H](O)[C@H](O)[C@H](O)CO)c2cc1C [Riboflavin]
NOAEL (Rattus norvegicus; subchronic, duration: 90 days, M/F, Wistar, no effects): 160 mg/kg-day

SMILES: CSc1nccnc1C(C)C [Pyrazine, 2-(1-methylethyl)-3-(methylthio)-]
NOAEL (Rattus norvegicus; subchronic, duration: 13 weeks, oral, diet, M/F, no effects): 1.63 mg/kg-day

SMILES: NC(N)=O [Urea]
LD50 (Rattus norvegicus; oral, mortality): 14300 mg/kg-day
NOEL (Rattus norvegicus; reproduction developmental, reproduction): 2250 mg/kg-day

SMILES: SCc1ccccn1 [2-Pyridinemethanethiol]
NOAEL (Rattus norvegicus; subchronic, duration: 90 days, oral, diet): 3.4 mg/kg-day

SMILES: NCCS(=O)(=O)O [l-Taurine]
NOAEL (Rattus norvegicus; subchronic, duration: 13 weeks, oral, gavage, M/F, Crj:CD, no effects): 1000 mg/kg-day

SMILES: O=C1CCc2ccccc2O1 [3,4-Dihydrocoumarin]
NOAEL (Rattus norvegicus; chronic, duration: 2 years, oral, gavage): 300 mg/kg-day
NOAEL (Rattus norvegicus; subchronic, duration: 13 weeks): 150 mg/kg-day
NOAEL (Rattus norvegicus; subchronic, duration: 13 weeks, hematological): 150 mg/kg-day

SMILES: CC(=O)c1ccc[nH]1 [2-Acetylpyrrole]
NOAEL (Rattus norvegicus; [1]): 0.048 mg/kg-day
NOAEL (Rattus norvegicus; [2]): 48 mg/kg-day
NOAEL (Rattus norvegicus; [3]): 48 mg/kg-day

SMILES: CCOC(=O)c1ccc(O)cc1 [Ethylparaben]
NOAEL (Rattus norvegicus; subchronic, duration: 8 weeks, M, Wistar, no effects): 1040 mg/kg-day

SMILES: O=C([O-])c1ccccn1.O=C([O-])c1ccccn1.O=C([O-])c1ccccn1.[Cr+3] [Chromium picolinate]
NOAEL (Rattus norvegicus; chronic, duration: 2 years, M/F, Fischer 344, no effects): 2400 mg/kg-day

SMILES: O=C(O)c1cc(O)c(O)c(O)c1 [Gallic acid]
NOAEL (Rattus norvegicus; subchronic, duration: 13 weeks, oral, M/F, organ weight): 119 mg/kg-day

SMILES: CCCCC(CC)COC(=O)c1ccc(N(C)C)cc1 (stereo unspecified) [2-Ethylhexyl 4-(dimethylamino)benzoate]
NOAEL (Rattus norvegicus; short-term, duration: 4 weeks, M/F, histopathology: nonneoplastic): 100 mg/kg-day

SMILES: CC(/C=C/C=C(C)/C=C/C(=O)[O-])=C\C=C\C=C(C)\C=C\C=C(C)\C=C\C(=O)[O-].[K+].[K+] [Dipotassium 6,6'-diapo-psi,psi-carotenedioate]
NOAEL (Rattus norvegicus; subchronic, duration: 13 weeks, oral, diet, M/F, Sprague-Dawley, clinical chemistry): 30 mg/kg-day

SMILES: OCCc1ccc(O)c(O)c1 [3,4-Dihydroxyphenylethanol]
NOAEL (Rattus norvegicus; subchronic, duration: 90 days, oral, gavage, M/F, body weight): 50 mg/kg-day
NOAEL (Rattus norvegicus; subchronic, duration: 90 days, oral, gavage, Wistar, body weight): 250 mg/kg-day

SMILES: C=C(C)C1CC=C(C)CC1 (stereo unspecified) [Limonene]
NOAEL (Rattus norvegicus; chronic, duration: 103 weeks, oral, gavage, F, mortality): 215 mg/kg-day
NOEL (Rattus norvegicus; subchronic, duration: 13 weeks, histopathology: nonneoplastic): 10 mg/kg-day

SMILES: Cc1noc(C)c1Cn1cc(N2C(=O)CN(Cc3cccc(O)c3)C2=O)cn1
NOAEL (Rattus norvegicus; subchronic, duration: 13 weeks, oral, diet, no effects): 100 mg/kg-day

SMILES: CC1COC(C)O1 (stereo unspecified) [2,4-Dimethyl-1,3-dioxolane]
NOEL (Rattus norvegicus; chronic, duration: 2 years): 2500 mg/kg-day

SMILES: CCOC(=O)c1ccccc1O [Ethyl salicylate]
NOAEL (Rattus norvegicus; chronic, duration: 2 years, oral, growth): 50 mg/kg-day

SMILES: C/C=C/C=C\CC/C=C/C(=O)NCC(C)C [(E,Z,E)-N-(2-Methylpropyl)-2,6,8-decatrienamide]
NOAEL (Rattus norvegicus; [2]): 23.4 mg/kg-day

LEL (Canidae; subchronic, duration: 90 days, no effects): 120 mg/kg-day
LEL (Rattus norvegicus; subchronic, duration: 90 days, oral, gavage, F, no effects): 120 mg/kg-day
SMILES: CC1=C(C=O)C(C)(C)CC=C1 [Safranal]
NOEL (Rattus norvegicus; subchronic, duration: 90 days): 10 mg/kg-day

SMILES: CCCCCO [1-Pentanol]
NOAEL (Rattus norvegicus; subchronic, duration: 90 days, oral, gavage, no effects): 1000 mg/kg-day

SMILES: CC(=O)c1nccs1 [2-Acetylthiazole]
NOAEL (Rattus norvegicus; subchronic, duration: 90 days, oral, diet, body weight): 50 mg/kg-day

SMILES: NC(N)=NCCC[C@H](N)C(=O)O [L-Arginine]
NOAEL (Rattus norvegicus; subchronic, duration: 13 weeks, M/F, Crj:CD, no effects): 3.13 mg/kg-day

SMILES: CCC(=O)c1ccc[nH]1 [2-Propionylpyrrole]
NOAEL (Rattus norvegicus; [1]): 0.048 mg/kg-day
NOAEL (Rattus norvegicus; [3]): 48 mg/kg-day

SMILES: CCCCCCCCCCCC(=O)N[C@@H](CCCN=C(N)N)C(=O)OCC [N alpha-Lauroyl-L-arginine ethyl ester]
NOAEL (Rattus norvegicus; subchronic, duration: 13 weeks, oral, M/F, Sprague-Dawley, clinical chemistry): 47 mg/kg-day

SMILES: NC[C@@H]1O[C@H](O[C@H]2[C@@H](O)[C@H](O[C@@H]3[C@@H](O)[C@H](N)C[C@H](N)[C@H]3O[C@H]3O[C@H](CO)[C@@H](O)[C@H](O)[C@H]3N)O[C@@H]2CO)[C@H](N)[C@@H](O)[C@@H]1O.O=S(=O)(O)O [Paromomycin sulfate]
NOEL (Canidae; chronic, oral): 3.4 mg/kg-day

SMILES: Cc1c(C)c2c(c(C)c1OC(=O)CCC(=O)O)CC[C@@](C)(CCC[C@H](C)CCC[C@H](C)CCCC(C)C)O2 [d-alpha-Tocopheryl succinate]
NOAEL (Rattus norvegicus; subchronic, duration: 90 days, clinical chemistry): 265 mg/kg-day

SMILES: NCCCCN [Putrescine]
LD50 (Rattus norvegicus; oral, F, mortality): 463 mg/kg

SMILES: CC1SCCSS1 (stereo unspecified) [1,2,4-Trithiane, 3-methyl-]
NOEL (Rattus norvegicus; subchronic, duration: 13 weeks, oral, diet): 0.3 mg/kg-day

SMILES: CCC=C1OC(=O)c2ccccc21 [3-Propylidenephthalide]
NOAEL (Rattus norvegicus; subchronic, duration: 90 days, oral): 5.42 mg/kg-day
